Measured values as given in PubChem BioAssay AID504745 (National Center for Advancing Translational Sciences (NCATS), 2011).

System: Caco-2 bidirectional permeability, efflux ratio, LC-MS/MS
Test: Inhibitors of N370S glucocerebrosidase as a Potential Chaperone Treatment of Gaucher Disease: Efflux Ratio Profiling
Settings: active compounds read low
Excerpt: Glucocerebrosidase (GC) catalyzes the hydrolysis of beta-glucocerebroside to glucose and ceramide in lysosomes. Mutations in the glucocerebrosidase gene result in Gaucher disease, an autosomal recessive lysosomal storage disorder. Many of the mutations encountered in patients with Gaucher disease are missense alterations that may cause misfolding, decreased stability and/or mistrafficking of this lysosomal protein. […] These inhibitors include iminosugar analogs and three non-iminosugar inhibitors identified from a previous HTS of 62,000 compounds with the wild type recombinant enzyme. After further testing a probe has been identified and was characterized though AMDE tests. This bioassays provides profiling data on Caco-2 cell permeability of leads compounds developed for the HPGD project. This in vitro model is often predictive of in vivo efflux of the compound by measuring the ratio of transport in and out the plasma membrane of the Caco2-cell line. NIH Chemical Genomics Center [NCGC] NIH Molecular Libraries Probe Production Centers Network [MLPCN] MLPCN Grant: MH086442-01 Assay Submitter (PI): Wei Zheng
1. […] The T0, LY and T90, LY plates are read by FlexStation 3 at excitation of 485 nm and emission of 535 nm to determine LY permeability. […]

efflux ratio: 9.9
Structure (SMILES): S=C(NCCCc1cnc[nH]1)NCCCN(Cc1ccc(Cl)c(Cl)c1)c1ccc(Br)cn1
